Reference: US20170143748A1, “ANTI-TUMOR PHARMACEUTICAL APPLICATION OF PENTACYCLIC TRITERPENE SAPONIN COMPOUNDS OF SZECHUAN MELANDIUM ROOT” (priority 2014, published 2017)
“And” between values parts separate entries of the source, which are not always exact repeats. Equal entries are not always repeated.

Legend:
[1] = system: BGC823 human gastric adenocarcinoma; assay: Anti-BGC823 human gastric adenocarcinoma in BALB/c (nu/nu) nude mice; format: in vivo; design: tumor volume of BGC823-bearing nude mice / Tumor mass: unit not given here; details: for body weight of BGC823-bearing nude mice / tumor volume of BGC823-bearing nude mice: Sc; for body weight of BGC823-bearing nude mice: in g (unit assumed); for Inhibition rate: from average tumor mass vs model; for Tumor index: tumor mass/body weight
Procedure: Human resources gastric adenocarcinoma cell line BGC823 was cultured in the same condition as the experiment 4.
The body weight and the tumor volume were measured and recorded weekly. The tumor volume was calculated according to the formula below.
Tumors were departed and weighed. Tumor Index and inhibition rate were calculated as below: […]

HepG2 = assay: MTT inhibition of tumor cells in vitro (Example 3); format: cell-based, Human; details: 40 μg/mL
HT29 = assay: MTT inhibition of tumor cells in vitro (Example 3); format: cell-based, Human; details: 40 μg/mL
Procedure: (§1) Human resources tumor cell line […], […], HT29, MCF-7 and A875 were provided by Cancer Hospital, Chinese Academy of Medical Sciences.
(§2) Cells were passaged every 2 or 3 days, and all the experiments were carried out on exponentially growing cells.
(§3) All cells were cultured in a humidified atmosphere (5% CO2 and […]), and passaged every 2 or 3 days. Cells were harvested on exponentially growing phase, and cell suspension was prepared with 2×10^4 cells/mL, added with 100 μL per well of 96-well plates, and cultured for 24 h in incubator. 100 μL medium without cells was added per well as blank group.
(§4) Compound (1), (2), (3), (4), (7) or (8) was dissolved in DMSO respectively, and diluted with 1640 medium at a final concentration of 400 μg/mL, so as to that of the Cisplatin. Cells were divided into 9 groups, they were blank group, model group, Compound (1), (2), (3), (4), (7) and (8) groups, and Cisplatin group as the positive one, 6 wells per group.
(§5) Before drug administration, supernatant of each well was removed and fresh 1640 medium was added, 180 μL per well. Compounds and Cisplatin were added with 20 μL per well respectively at a final concentration of 40 μg/mL. Wells of blank and model groups were added with 0.5% DMSO, 20 μL per well. 48 hours later, 20 μL MTT was added per well and continued to culture for 4 hours, then the supernatant was replaced carefully and DMSO was added with 150 μL per well to end the experiment. The 96-well plates were shaken for 10 mins and read the absorbance at 490 nm. The Inhibition rate was calculated.
(§6) Inhibition rate=[(ODmodel−ODblank)−(ODdrugs−ODblank)]/(ODmodel−ODblank)×100%
(§7) The MTT experiment was repeated three times.

MCF-7 = assay: MTT inhibition of tumor cells in vitro (Example 3); format: cell-based, Human; details: 48 hours; for Inhibition rate, MCF-7: 40 μg/mL
Procedure: as §1, §2, §3, §4, §5, §6, §7

A875 = assay: MTT inhibition of tumor cells in vitro (Example 3); format: cell-based, Human; details: 48 hours; for Inhibition rate, A875: 40 μg/mL
Procedure: as §1, §2, §3, §4, §5, §6, §7

BGC823 = assay: MTT inhibition of tumor cells in vitro (Example 3); format: cell-based, Human; details: 40 μg/mL
Procedure: as §1, §2, §3, §4, §5, §6, §7

HepG2 human heptoma = assay: Anti-HepG2 human heptoma in BALB/c (nu/nu) nude mice; details: for body weight of HepG2-bearing nude mice / tumor volume of HepG2-bearing nude mice: Sc; for Inhibition rate: from average tumor mass vs model; for Tumor index: tumor mass/body weight
Procedure: 70 male BALB/c (nu/nu) nude mice (18-20 g, License NO. SCXK (BJ) 2009-0017, National Institutes for Food and Drug Control.) were adaptively bred for one week, and then used in the following experiment.
Human resources hepatoma cell line HepG2 was cultured in RPMI-1640 medium containing 100 U/mL Penicillin and 100 μg/mL Streptomycin with 10% fetal bovine serum and maintained at 37° C. in a humidified atmosphere (5% CO2 and […]).
70 BALB/c (nu/nu) nude mice were adaptively bred for 1 week, HepG2 cells were inoculated subcutaneously into the back of nude mice, 1×10^7 cells per mouse. […] 3 days after inoculation, mice of every therapeutic group were all given the relevant compounds or drugs for 3 weeks, and others were given isodose physiological saline.
The body weight and the size of tumor were measured and recorded weekly. The tumor volume was calculated with the formula below:
tumor volume V=π/6×a×b^2 (a, b means the transverse and longitudinal length of tumor)
At the end of administration, mice were fastened for 8 hours, weighed the fasting body weight, dropped off eyeball to collect blood, centrifuged and collected serum for next experiment. The tumors were departed and weighed. Tumor Index and inhibition rate were calculated as below:
Tumor Index=Tumor mass (mg)/body weight of animal (g)
Inhibition rate=(Average tumor massControl group−Average tumor massadministration group)/Average tumor massControl group×100%
Mice in the model group were injected with sterile water (10 ml/kg BW), Sc. All the animals were treated at 9 am for 3 weeks.
Determination of body weights: Body weights of animals were weighed and recorded once a week.
Tumor measurement: The transverse and longitudinal lengths of tumor were measured with vernier caliper weekly.
End of the experiment: After mice being administrated for 3 weeks (21 days), the experiment was terminated.

HT29 human colon cancer = assay: Anti-HT29 human colon cancer in BALB/c (nu/nu) nude mice; format: in vivo; design: body weight of HT29-bearing nude mice / tumor volume of HT29-bearing nude mice / Tumor mass: unit not given here; details: for body weight of HT29-bearing nude mice / tumor volume of HT29-bearing nude mice: Sc; for Inhibition rate: from average tumor mass vs model; for Tumor index: tumor mass/body weight
Procedure: Human resources Colon cancer cell line HT29 was cultured in the same condition as the experiment 4. […] Mice were randomly assigned into 7 groups: […] The body weight and the tumor volume were measured and recorded weekly. The tumor volume was calculated according to the formula below. […] The tumors were departed and weighed.

[2] = 0 W, mg/kg BW: total saponins 1.5, Compound 1, combination 1 & 19, 5-FU 20
[3] = 1 W, mg/kg BW: total saponins 1.5, Compound 1, combination 1 & 19, 5-FU 20
[4] = 2 W, mg/kg BW: total saponins 1.5, Compound 1, combination 1 & 19, 5-FU 20
[5] = 3 W, mg/kg BW: total saponins 1.5, Compound 1, combination 1 & 19, 5-FU 20
[6] = BGC823-bearing nude mice, after 3 weeks
[7] = 1 W, mg/kg BW: total saponins 1.5, Compound 1, combination 1 & 39, Cytoxan 40
[8] = 2 W, mg/kg BW: total saponins 1.5, Compound 1, combination 1 & 39, Cytoxan 40
[9] = 3 W, mg/kg BW: total saponins 1.5, Compound 1, combination 1 & 39, Cytoxan 40
[10] = HepG2-bearing nude mice, after 3 weeks
[11] = 1 W, mg/kg BW: total saponins 1.5, Compound 1, combination 1 & 19, PTX 20
[12] = 2 W, mg/kg BW: total saponins 1.5, Compound 1, combination 1 & 19, PTX 20
[13] = 3 W, mg/kg BW: total saponins 1.5, Compound 1, combination 1 & 19, PTX 20
[14] = HT29-bearing nude mice, after 3 weeks

| Molecule | body weight of BGC823-bearing nude mice [1, 2] | tumor volume of BGC823-bearing nude mice [1, 3] | body weight of BGC823-bearing nude mice [1, 3] | tumor volume of BGC823-bearing nude mice [1, 4] | body weight of BGC823-bearing nude mice [1, 4] | tumor volume of BGC823-bearing nude mice [1, 5] | body weight of BGC823-bearing nude mice [1, 5] | Inhibition rate [1, 6] | Tumor index [1, 6] | Inhibition rate, MCF-7 (MCF-7) | Inhibition rate, A875 (A875) | tumor volume of HepG2-bearing nude mice (HepG2 human heptoma; [7]) | tumor volume of HepG2-bearing nude mice (HepG2 human heptoma; [8]) | tumor volume of HepG2-bearing nude mice (HepG2 human heptoma; [9]) | Inhibition rate (HepG2 human heptoma; [10]) | Tumor index (HepG2 human heptoma; [10]) | tumor volume of HT29-bearing nude mice (HT29 human colon cancer; [11]) | tumor volume of HT29-bearing nude mice (HT29 human colon cancer; [12]) | tumor volume of HT29-bearing nude mice (HT29 human colon cancer; [13]) | Inhibition rate (HT29 human colon cancer; [14]) | other results |
| --- | --- | --- | --- | --- | --- | --- | --- | --- | --- | --- | --- | --- | --- | --- | --- | --- | --- | --- | --- | --- | --- |
| O=c1[nH]cc(F)c(=O)[nH]1 [Compound 5-FU, 5-FU, reference compound] | 20.20 ± 1.23 | 931.38 ± 623.32 | 19.50 ± 1.51 | 1262.33 ± 764.46 | 18.20 ± 1.81 | 2212.36 ± 1196.96 | 16.70 ± 2.20 | 54.85% | 0.08 ± 0.04 | – | – | – | – | – | – | – | – | – | – | – | – |
| COC(=O)C1CC(O[C@H]2CC[C@]3(C)[C@H]4C=CC5[C@@H]6CC(C)(C)CC[C@]6(C(=O)OC6OC(C)C(OC(=O)/C=C\c7ccc(C)cc7)C(OC(C)=O)C6OC6CC(C)C(O)C(O)C6O)[C@H](O)C[C@@]5(C)[C@]4(C)CC[C@H]3[C@]2(C)C=O)C(OC2OC(CO)C(O)C(O)C2O)C(OC2OCC(O)C(O)C2O)C1O (stereo partly shown) [Compound (4), sinocrassuloside IV] | – | – | – | – | – | – | – | – | – | – | – | – | – | – | – | – | – | – | – | – | inhibition at 40 µg/mL (HepG2; Homo sapiens, HepG2, 48 h, read-out: Inhibition rate, HepG2): 65.7 ± 1.05%; inhibition at 40 µg/mL (HT29; Homo sapiens, HT-29, 48 h, read-out: Inhibition rate, HT29): 90.6 ± 5.6%; inhibition at 40 µg/mL (MCF-7; Homo sapiens, MCF7, 40 μg/mL, read-out: Inhibition rate, MCF-7): 56.2 ± 1.96%; inhibition at 40 µg/mL (A875; Homo sapiens, A875, 40 μg/mL, read-out: Inhibition rate, A875): 70.5 ± 9.76%; inhibition at 40 µg/mL (BGC823; Homo sapiens, BGC-823, 48 h, read-out: Inhibition rate, BGC823): 92.4 ± 6.24% |
| CCCCOC(=O)C1OC(O[C@H]2CC[C@]3(C)[C@H]4CC=C5[C@@H]6CC(C)(C)CC[C@]6(C(=O)OC6OC(C)C(OC(=O)/C=C\c7ccc(OC)cc7)C(OC(C)=O)C6OC6OC(C)C(O)C(O)C6O)[C@H](O)C[C@@]5(C)[C@]4(C)CC[C@H]3[C@]2(C)C=O)C(OC2OC(CO)C(O)C(O)C2O)C(OC2OCC(O)C(O)C2O)C1O (stereo partly shown) [Compound (8), sinocrassuloside XIII] | – | – | – | – | – | – | – | – | – | 61.32 ± 11.67% | 55.32 ± 13.35% | – | – | – | – | – | – | – | – | – | Inhibition rate, HepG2 (HepG2; 48 hours): 41.25 ± 1.27%; Inhibition rate, HT29 (HT29; 48 hours): 77.22 ± 6.17%; Inhibition rate, BGC823 (BGC823; 48 hours): 56.00 ± 7.90% |
| O=P1(N(CCCl)CCCl)NCCCO1 (stereo not shown) [Cytoxan, reference compound] | – | – | – | – | – | – | – | – | – | – | – | 988.47 ± 705.60 | 1220.93 ± 881.80 | 1593.79 ± 955.17 | 70.46% | 0.06 ± 0.02 | – | – | – | – | body weight of HepG2-bearing nude mice (HepG2 human heptoma; 0 W, mg/kg BW: total saponins 1.5, Compound 1, combination 1 & 39, Cytoxan 40): 19.20 ± 0.63; body weight of HepG2-bearing nude mice (HepG2 human heptoma; [7]): 18.50 ± 1.08; body weight of HepG2-bearing nude mice (HepG2 human heptoma; [8]): 16.00 ± 1.41; body weight of HepG2-bearing nude mice (HepG2 human heptoma; [9]): 14.70 ± 1.34 |
| CC(=O)O[C@H]1C(=O)[C@@]2(C)[C@H]([C@H](OC(=O)c3ccccc3)[C@]3(O)C[C@H](OC(=O)[C@H](O)[C@@H](NC(=O)c4ccccc4)c4ccccc4)C(C)=C1C3(C)C)[C@]1(OC(C)=O)CO[C@@H]1C[C@@H]2O [PTX, Paclitaxel, reference compound] | – | – | – | – | – | – | – | – | – | – | – | – | – | – | – | – | 943.55 ± 516.62 | 996.66 ± 347.05 | 801.38 ± 259.34 | 60.81% | body weight of HT29-bearing nude mice (HT29 human colon cancer; 0 W, mg/kg BW: total saponins 1.5, Compound 1, combination 1 & 19, PTX 20): 20.60 ± 1.32; body weight of HT29-bearing nude mice (HT29 human colon cancer; [11]): 20.30 ± 1.68; body weight of HT29-bearing nude mice (HT29 human colon cancer; [12]): 19.80 ± 1.77; body weight of HT29-bearing nude mice (HT29 human colon cancer; [13]): 19.20 ± 1.37; Tumor index (HT29 human colon cancer; [14]): 0.06 ± 0.03 |
| sinocrassuloside VI [Compound (1)] | 20.30 ± 1.06 | 850.16 ± 539.70 | 21.50 ± 1.18 | 997.88 ± 499.61 | 22.70 ± 1.16 | 845.04 ± 239.21 | 23.70 ± 1.06 | 64.54% and 61.54% | 0.04 ± 0.02 | 83.12 ± 2.33% | 88.02 ± 12.57% | 922.51 ± 624.95 | 1060.32 ± 570.38 | 1033.33 ± 656.54 | 80.05% | 0.03 ± 0.01 | 1094.99 ± 678.00 | 907.89 ± 738.11 | 814.93 ± 450.73 | 50.44% | Tumor mass (HT29 human colon cancer; HT29-bearing nude mice, after 3 weeks, mg/kg BW: total saponins 1.5, Compound 1, combination 1 & 19, PTX 20): 1.15 ± 0.52; Tumor index (HT29 human colon cancer; [14]): 0.05 ± 0.02; Tumor mass ([1]; BGC823-bearing nude mice, after 3 weeks, mg/kg BW: total saponins 1.5, Compound 1, combination 1 & 19, 5-FU 20): 1.05 ± 0.36; Tumor mass (HepG2 human heptoma; HepG2-bearing nude mice, after 3 weeks, mg/kg BW: total saponins 1.5, Compound 1, combination 1 & 39, Cytoxan 40): 0.59 ± 0.29 |
